Results taken from ChEMBL document CHEMBL4321828, “Recent developments on (-)-colchicine derivatives: Synthesis and structure-activity relationship” (Eur J Med Chem, 2020).

Columns and labels:
SK-MEL-2 = test: Antiproliferative activity against human SK-MEL-2 cells assessed as reduction in cell viability incubated for 24 hrs by SRB assay; format: functional, cell-based; conditions: SK-MEL-2, 24 h
MCF7 [1] = test: Antiproliferative activity against human MCF7 cells assessed as reduction in cell viability incubated for 24 hrs by SRB assay; format: functional, cell-based; conditions: MCF7, 24 h
HCT-15 = test: Antiproliferative activity against human HCT15 cells assessed as reduction in cell viability incubated for 24 hrs by SRB assay; format: functional, cell-based; conditions: HCT-15, 24 h
A549 [2] = test: Antiproliferative activity against human A549 cells assessed as reduction in cell viability incubated for 24 hrs by SRB assay; format: functional, cell-based; conditions: A549, 24 h
SK-OV-3 = test: Antiproliferative activity against human SKOV3 cells assessed as reduction in cell viability incubated for 24 hrs by SRB assay; format: functional, cell-based; conditions: SK-OV-3, 24 h
KB 3-1 = test: Antiproliferative activity against human KB3-1 cells assessed as reduction in cell viability after 96 hrs by methylene blue staining based spectrophotometric method; format: functional; conditions: KB 3-1, 96 h
[3] = Antiproliferative activity against human KB-8-5-11 cells assessed as reduction in cell viability after 96 hrs by methylene blue staining based spectrophotometric method; format: functional
[4] = molecular target: ATP-dependent translocase ABCB1 (Homo sapiens, UniProt P08183); test: Induction of P-gp in human LS180 cells assessed as […] in intracellular accumulation of Rh123 at 100 nM using Rho123 as substrate preincubated for 48 hrs followed by addition of Rh123 and measured after 90 mins by fluorescence based assay relative to control; format: cell-based; conditions: ls180, 48 h preincubation, then 1.5 h with Rh123, 0.1 µM
Chain of ATP-dependent translocase ABCB1 (P08183 whole entry): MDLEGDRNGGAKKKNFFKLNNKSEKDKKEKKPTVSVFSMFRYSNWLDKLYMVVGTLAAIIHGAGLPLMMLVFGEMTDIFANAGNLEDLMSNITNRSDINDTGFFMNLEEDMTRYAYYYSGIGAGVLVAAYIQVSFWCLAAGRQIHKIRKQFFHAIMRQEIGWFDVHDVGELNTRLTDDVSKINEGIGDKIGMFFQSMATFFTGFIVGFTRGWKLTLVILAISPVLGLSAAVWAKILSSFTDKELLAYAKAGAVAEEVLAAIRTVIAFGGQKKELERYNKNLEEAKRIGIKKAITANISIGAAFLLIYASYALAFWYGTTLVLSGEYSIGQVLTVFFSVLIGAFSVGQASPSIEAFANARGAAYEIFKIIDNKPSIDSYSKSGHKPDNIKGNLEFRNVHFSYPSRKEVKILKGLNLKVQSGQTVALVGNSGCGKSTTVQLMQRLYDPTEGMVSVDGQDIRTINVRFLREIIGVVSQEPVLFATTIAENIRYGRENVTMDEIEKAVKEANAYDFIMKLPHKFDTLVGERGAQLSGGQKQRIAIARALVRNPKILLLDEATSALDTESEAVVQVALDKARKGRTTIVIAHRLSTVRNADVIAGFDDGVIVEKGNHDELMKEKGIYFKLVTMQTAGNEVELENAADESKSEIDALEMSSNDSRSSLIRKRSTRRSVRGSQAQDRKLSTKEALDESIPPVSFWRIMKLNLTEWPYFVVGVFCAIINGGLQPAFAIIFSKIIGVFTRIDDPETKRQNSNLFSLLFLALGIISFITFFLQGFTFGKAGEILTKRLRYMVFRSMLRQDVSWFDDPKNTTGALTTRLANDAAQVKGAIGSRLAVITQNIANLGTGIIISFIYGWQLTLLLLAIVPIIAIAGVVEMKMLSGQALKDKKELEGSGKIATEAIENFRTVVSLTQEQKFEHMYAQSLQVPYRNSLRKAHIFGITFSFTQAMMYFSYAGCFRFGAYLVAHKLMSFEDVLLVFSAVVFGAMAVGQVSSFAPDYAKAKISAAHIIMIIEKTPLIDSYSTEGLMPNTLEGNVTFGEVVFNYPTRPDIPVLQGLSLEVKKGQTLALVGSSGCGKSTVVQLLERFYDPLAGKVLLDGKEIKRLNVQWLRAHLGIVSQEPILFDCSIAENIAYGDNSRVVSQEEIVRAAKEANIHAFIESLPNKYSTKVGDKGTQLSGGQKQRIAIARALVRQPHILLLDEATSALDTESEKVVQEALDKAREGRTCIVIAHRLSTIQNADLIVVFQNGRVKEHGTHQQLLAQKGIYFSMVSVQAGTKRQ

HCT-116 = test: Antiproliferative activity against human HCT116 cells assessed as reduction in cell viability incubated for 48 hrs by MTT assay; format: functional, cell-based; conditions: HCT-116, 48 h
COLO 205 = test: Antiproliferative activity against human COLO205 cells assessed as reduction in cell viability incubated for 48 hrs by MTT assay; format: functional, cell-based; conditions: COLO 205, 48 h
MDA-MB-231 = test: Antiproliferative activity against human MDA-MB-231 cells assessed as reduction in cell viability; format: functional, cell-based
DLD-1 = test: Antiproliferative activity against human DLD1 cells assessed as reduction in cell viability; format: functional, cell-based
LoVo = test: Antiproliferative activity against human LoVo cells assessed as reduction in cell viability; format: functional, cell-based
MCF7 [5] = test: Antiproliferative activity against human MCF7 cells assessed as reduction in cell viability; format: functional, cell-based
MCF7 [6] = test: Antiproliferative activity against human MCF7 cells assessed as reduction in cell viability by MTT assay; format: functional, cell-based
A549 [7] = test: Antiproliferative activity against human A549 cells assessed as reduction in cell viability by MTT assay; format: functional, cell-based
A2780 = test: Antiproliferative activity against human A2780 cells assessed as reduction in cell viability by MTT assay; format: functional, cell-based
Bel-7402 = test: Antiproliferative activity against human Bel7402 cells assessed as reduction in cell viability by MTT assay; format: functional, cell-based

CC/C=C\C/C=C\C/C=C\C/C=C\C/C=C\C/C=C\CCC(=O)N[C@H]1CCc2cc(OC)c(OC)c(OC)c2-c2ccc(SC)c(=O)cc21
IC50 (SK-MEL-2): 2000 nM
IC50 (MCF7 [1]): 494 nM
IC50 (HCT-15): 392 nM
IC50 (A549 [2]): 917 nM
IC50 (SK-OV-3): 2630 nM

COc1c(COC(C)=O)c2c(c(OC)c1OC)-c1ccc(OC)c(=O)cc1[C@@H](NC(C)=O)CC2
IC50 (KB 3-1): > 1000 nM
IC50 [3]: > 1000 nM

COc1cc2c(c(OC)c1OC)-c1ccc(N3CCN(C(=O)OC(C)(C)C)CC3)c(=O)cc1[C@@H](NC(C)=O)CC2
Activity [4]: 90.94%
IC50 (HCT-116): 4000 nM
IC50 (COLO 205): 3000 nM

CCCCSc1ccc2c(cc1=O)[C@@H](NC(C)=O)CCc1cc(OC)c(OC)c(OC)c1-2
IC50 (MDA-MB-231): 1770 nM
IC50 (DLD-1): 317 nM
IC50 (LoVo): 438 nM
IC50 (MCF7 [5]): 874 nM

COc1cc2c(c(OC)c1OC)-c1ccc(SC)c(=O)cc1[C@@H](NC(=O)[C@H](O)[C@@H](O)[C@H](O)[C@H](O)CO)CC2
IC50 (SK-MEL-2): 12.3 nM
IC50 (MCF7 [1]): 7.8 nM
IC50 (HCT-15): 18.7 nM
IC50 (A549 [2]): 14.2 nM
IC50 (SK-OV-3): 29.8 nM

COc1cc2c(c(OC)c1OC)-c1ccc(Nc3ccc(Cl)c(C(F)(F)F)c3)c(=O)cc1[C@@H](NC(C)=O)CC2
Activity [4]: 90.29%
IC50 (HCT-116): 40 nM
IC50 (COLO 205): 30 nM

CNc1ccc2c(cc1=O)[C@@H](NC(=O)CCC(=O)OC/C=C/CO[N+](=O)[O-])CCc1cc(OC)c(OC)c(OC)c1-2
IC50 (MCF7 [6]): 202 nM
IC50 (A549 [7]): 135 nM
IC50 (A2780): 205 nM
IC50 (Bel-7402): 120 nM

COc1cccc2c1C(=O)c1c(O)c3c(c(O)c1C2=O)C[C@@](O)(C(=O)CO)C[C@@H]3O[C@H]1C[C@H](N)[C@H](O)[C@H](C)O1 [DOXORUBICIN]
IC50 (SK-MEL-2): 11.7 nM
IC50 (MDA-MB-231): 936 nM
IC50 (HCT-15): 16.4 nM
IC50 (DLD-1): 511 nM
IC50 (A549 [2]): 14.7 nM
IC50 (LoVo): 520 nM
IC50 (SK-OV-3): 34.2 nM

COc1cc2c(c(OC)c1OC)-c1ccc(N3CCC(c4ccccc4)CC3)c(=O)cc1[C@@H](NC(C)=O)CC2
Activity [4]: 101.03%
IC50 (HCT-116): 1000 nM
IC50 (COLO 205): 800 nM

COc1cc2c(c(OC)c1OC)-c1ccc(OC)c(=O)cc1[C@@H](NC(C)=O)CC2 [COLCHICINE]
IC50 (SK-MEL-2): 6 nM
IC50 (MDA-MB-231): 25.3 nM
IC50 (MCF7 [1]): > 300 nM
IC50 (HCT-15): 9 nM
Activity [4]: 62.91%
IC50 (HCT-116): 50 nM
IC50 (A549 [2]): 21 nM
IC50 (SK-OV-3): 18 nM

COc1cc2c(c(OC)c1OC)-c1ccc(N3CCOCC3)c(=O)cc1[C@@H](NC(C)=O)CC2
Activity [4]: 95.97%
IC50 (HCT-116): 5000 nM
IC50 (COLO 205): 1200 nM

COc1cc2c(c(OC)c1OC)-c1ccc(SC)c(=O)cc1[C@@H](NC(=O)CC[C@H](NC(=O)c1ccc(NCc3cnc4nc(N)nc(O)c4n3)cc1)C(=O)O)CC2
IC50 (MCF7 [1]): 697 nM
IC50 (HCT-15): 1160 nM
IC50 (A549 [2]): 4960 nM

CNc1ccc2c(cc1=O)[C@@H](NC(=O)CCC(=O)OCCCO[N+](=O)[O-])CCc1cc(OC)c(OC)c(OC)c1-2
IC50 (MCF7 [6]): 135 nM
IC50 (A549 [7]): 88 nM
IC50 (A2780): 99 nM
IC50 (Bel-7402): 85 nM

CNc1ccc2c(cc1=O)[C@@H](NC(=O)CCC(=O)OCCCCCO[N+](=O)[O-])CCc1cc(OC)c(OC)c(OC)c1-2
IC50 (MCF7 [6]): 100 nM
IC50 (A549 [7]): 86 nM
IC50 (A2780): 96 nM
IC50 (Bel-7402): 85 nM

COc1c(CO)c2c(c(OC)c1OC)-c1ccc(OC)c(=O)cc1[C@@H](NC(C)=O)CC2
IC50 (KB 3-1): 260 nM
IC50 [3]: > 1000 nM

CCCSc1ccc2c(cc1=O)[C@@H](NC(C)=O)CCc1cc(OC)c(OC)c(OC)c1-2
IC50 (MDA-MB-231): 704 nM
IC50 (DLD-1): 71.8 nM
IC50 (LoVo): 56.1 nM
IC50 (MCF7 [5]): 764 nM

COc1cc2c(c(OC)c1OC)-c1ccc(=N)c(O)cc1[C@@H](NC(C)=O)CC2
Activity [4]: 107.41%
IC50 (HCT-116): 150 nM
IC50 (COLO 205): 120 nM

COc1c(COC2CCCCO2)c2c(c(OC)c1OC)-c1ccc(OC)c(=O)cc1[C@@H](NC(C)=O)CC2 (stereo partly specified)
IC50 (KB 3-1): > 1000 nM
IC50 [3]: > 1000 nM

CNc1ccc2c(cc1=O)[C@@H](NC(=O)CCC(=O)OCCO[N+](=O)[O-])CCc1cc(OC)c(OC)c(OC)c1-2
IC50 (MCF7 [6]): 103 nM
IC50 (A549 [7]): 106 nM
IC50 (A2780): 104 nM
IC50 (Bel-7402): 202 nM

COc1cc2c(c(OC)c1OC)-c1ccc(N3CCNCC3)c(=O)cc1[C@@H](NC(C)=O)CC2
Activity [4]: 95.52%
IC50 (HCT-116): > 10000 nM
IC50 (COLO 205): 8000 nM
